Test [1] concerns albino Swiss mice. Nature of the test: Passive avoidance test in mice. The class given is in vivo, mouse. As to conditions: compared to the vehicle control; BacoMind 40, 60 and 80 mg/kg p.o. 7 days; piracetam 100 mg/kg i.p.; scopolamine 0.3 mg/kg i.p. Here is the method: (§1) Forty two albino Swiss mice (20-22 g) of either sex obtained from National Toxicology Centre, Pune were used for the study. The animals were acclimatized for a week and maintained under standard laboratory conditions, given free access to feed (Source: Laboratory prepared) and water, ad libitum.
Six albino Swiss mice of either sex were randomly allotted to each group. Group I served as the vehicle control. Group II, III and IV received BacoMind™ orally at the doses of 40, 60 and 80 mg/kg for 7 days. Piracetam was administered to group V (100 mg/kg, i.p, single dose, on 7th day 20 min before first trial) and served as the reference standard control. Group VI was administered with scopolamine (0.3 mg/kg, i.p, single dose, on 7th day 20 min before first trial) and served as the amnesia control. Group VII was administered both with BacoMind™ (60 mg/kg, p.o, for 7 days) and scopolamine (0.3 mg/kg, i.p, single dose, on 7th day 30 min after BacoMind™ treatment). Mice were placed individually on the electric grid and allowed to explore for one minute. A stimulus of 20 V with AC current of 5 mA was given and latency to reach SFZ was recorded for three consecutive times and considered as basal reading. After 1 h of the first trial, each animal was placed on the electric grid again and the latency to reach SFZ and the mistakes (descents) the animal made in 15 min were recorded and considered as parameters for acquisition and retention respectively.

Test [2] has as its system albino Swiss mice. Nature of the test: Elevated plus maze (EPM) test in mice. It is filed as in vivo, mouse. The conditions noted are these: scopolamine 0.3 mg/kg i.p. single dose, compared to the vehicle control. Here is the method:
as §1
Six albino Swiss mice of either sex were randomly allotted to each group. Group I served as the vehicle control. […] Piracetam was administered to group V (100 mg/kg, i.p, single dose on 7th day, 30 min before recording transfer latency) and served as the reference standard control. Group VI was administered with scopolamine (0.3 mg/kg, i.p, single dose on 7th day, 30 min before recording transfer latency) and served as the amnesia control group. […] The mice were placed individually at the end of open arm of the EPM facing away from the center. The time taken by the mouse to move into the enclosed arm was noted as transfer latency (TL). The mice were treated with the test substance/drugs as shown in the study design. […] After determination of the TL, mice were allowed to explore the maze for 2 min and then transferred to their home cages. The TL was again measured after 24 h i.e on […]. The TL was expressed as inflexion ratio.

Molecules are shown by their SMILES.

As to `NC(=O)CN1CCCC1=O` [piracetam, Piracetam], in the test on albino Swiss mice [1], the “latency to reach SFZ” value is “significantly decreased” and the “number of mistakes in 15 min” value was “significantly decreased”.
As for `CN1[C@@H]2C[C@@H](OC(=O)[C@H](CO)c3ccccc3)C[C@H]1[C@@H]1O[C@@H]12` [scopolamine], in the test on albino Swiss mice [1], the “latency to reach SFZ” value was “significant increase”. The inflexion ratio result in the test with albino Swiss mice [2] is listed as “significant decrease”.
